Tested on: T1, AcAAT4
T1 construct: pET32a-His fusion, expressed in E. coli BL21, Ni-NTA purified; tag cleavage not mentioned
Assay: GC-MS of SPME-collected (Z)-3-hexenyl acetate, varied (Z)-3-hexenol
Format: biochemical, Acacia confusa
Conditions: acetyl-CoA co-substrate; 50 mM Tris-HCl pH 7.4 in methods (text: optimal conditions pH 7.5-8); 30 °C

CC/C=C\CCO [(Z)-3-hexenol] showed a Km of 54.6 µM.

From PMC12330005, “Mechanism mediating the biosynthesis of the anti-insect volatile (Z)-3-hexenyl acetate in Acacia confusa Merr., an intercropping plant in tea plantations” (Molecular Horticulture, 2025)
